# Test results published in patent US20230301958A1, “SATRAPLATIN FOR USE IN THE TREATMENT OF LYMPHOID NEOPLASMS” (priority 2020, published 2023).
# Experiments:
# DLBCL cell lines = experiment: CellTiter-Glo luminescent cell viability assay, DLBCL cell lines; assay type: cell-based, human; conditions: 72h incubation, CTG assay
# Experimental: (§1) Hereto, the 50% inhibitory concentration (IC50) was determined in said cancer cell lines using the CellTiter-Glo® (CTG) luminescent cell viability assay after a 72h incubation with different concentrations of the two drugs ranging from 10 nM to 100 uM.
# (§2) All cell lines were cultured in the media supplemented with 10-15% FBS, at a temperature of 37° C., 5% CO2 and 95% humidity. Cell viability was measured using the CTG Luminescent Cell Viability Assay by standard procedures. Satraplatin was purchased from MedChemExpress (China) and cisplatin from Qilu Pharm (China), respectively. 1 mM solution of both drugs were established for storage at -20° C. as previously described (Wosikowski K et al., Cancer Chemother Pharmacol (2007) 60(4):589-600).
# (§3) Cells were harvested during the logarithmic growth period and count cell number using Count-star. Cell concentrations were adjusted to 4.44×10^4 cells/mL with the respective culture medium. […] Luminescence was recorded using EnVision Multi Label Reader.
# (§4) In order to calculate absolute IC50 (EC50), a dose-response curve was fitted using a nonlinear regression model with a sigmoidal dose response. […] The absolute IC50 (EC50) was calculated according to the dose-response curve generated by GraphPad Prism 5.0. The standard deviation was calculated for each dose level and each cell line and is indicated by the bars.
# OCI Ly-3 cell line = experiment: CellTiter-Glo luminescent cell viability assay, OCI-LY-3; assay type: cell-based, human; conditions: PCNSL-like DLBCL cell line, FIG. 3K, 72h
# Experimental: as §1, §2, §3, §4
# OCI-LY7 cells = experiment: CellTiter-Glo luminescent cell viability assay, OCI-LY-7; assay type: cell-based, human; conditions: DLBCL cell line, 72h
# Experimental: as §1, §2, §3, §4
# [1] = system: B-cell lymphoma cell lines (Burkitt lymphoma, mantle cell lymphoma, DLBCL); experiment: CellTiter-Glo luminescent cell viability assay, B-cell lymphoma cell lines; assay type: cell-based, human; conditions: mantle cell lymphoma and DLBCL cell lines, FIGS. 1-3
# Experimental: as §1, §2, §3, §4
# [2] = system: T-cell lymphoma cell lines; experiment: CellTiter-Glo luminescent cell viability assay, T-cell lymphoma cell lines; assay type: cell-based, human; conditions: particularly ALK+ ALCL, FIG. 4A-4D
# Experimental: as §1, §2, §3, §4
# [3] = system: multiple myeloma cell lines; experiment: CellTiter-Glo luminescent cell viability assay, multiple myeloma cell lines; assay type: cell-based, human; conditions: FIG. 5
# Experimental: as §1, §2, §3, §4
# [4] = system: lymphoma and myeloma cell lines; experiment: CellTiter-Glo luminescent cell viability assay, panel of 41 lymphoma and multiple myeloma cell lines; assay type: cell-based, human
# Experimental: as §1, §2
# Cells were harvested during the logarithmic growth period and count cell number using Count-star. Cell concentrations were adjusted to 4.44×10^4 cells/mL with the respective culture medium. Then, 90 µL cell suspensions were added in triplicate to two 96-well plates (plates A and B) with the final cell density of 4×10^3 cells/well. […] For that purpose, plates were equilibrated at RT for approximately 30 min. Then, 50 µL CTG reagent was added to each well. The content was mixed for 5 min on an orbital shaker to induce cell lysis and the plate incubated at RT for 20 min to stabilize luminescent signal. Luminescence was recorded using EnVision Multi Label Reader.
# In order to calculate absolute IC50 (EC50), a dose-response curve was fitted using a nonlinear regression model with a sigmoidal dose response. The formula for calculating surviving rate is: The surviving rate (%) = (LumTest article-LumMedium control)/(LumNon-treated-LumMedium control)×100%. The absolute IC50 (EC50) was calculated according to the dose-response curve generated by GraphPad Prism 5.0. The standard deviation was calculated for each dose level and each cell line and is indicated by the bars.
# [5] = system: metastatic prostate cancer; conditions: SPARC trial, patients receiving satraplatin; cited from earlier work
# [6] = in vivo, po; cited from earlier work
# [7] = in vivo; cited from earlier work
Structure (SMILES),IC50 values in DLBCL cell lines (DLBCL cell lines),killing of OCI Ly-3 (OCI Ly-3 cell line),killing of OCI-LY7 cells compared to cisplatin (OCI-LY7 cells),"inducing cell death, compared to cisplatin [1]","inducing cell death, compared to cisplatin [2]","inducing cell death, compared to cisplatin [3]","relative sensitivity of certain cell lines ([4]; DOHH2, OCI Ly19, SUDHL5, OCI Ly3, Toledo, Z138, Daudi, SUDHL1, HuT78 cell lines, FIG. 6)","IC 50 values, killing of lymphoma cell lines ([4]; FIGS. 1-6, 72h incubation)",sensitivity of all cell lines described ([4]; all tested cell lines),patients showing a relevant PSA-response (decline of more than 50%) [5],nephro- or neurotoxicity in clinical trials [6],CNS penetration [7]
N.N.[Cl][Pt][Cl] [cisplatin],low micromolar or even sub-molar,–,–,–,–,–,–,–,–,–,–,–
"CC(=O)[O][Pt]([NH2])([Cl])([Cl])([NH]C1CCCCC1)[O]C(C)=O [satraplatin, bis (acetato) ammine dichloro (cyclohexylamine) platinum (IV)]",low micromolar or even sub-molar,very effectively killed,significantly superior,at least equivalent to cisplatin,at least equivalent to cisplatin,at least equivalent to cisplatin,particularly sensitive,low micromolar concentrations or even lower,sensitive,25%,no or not relevant nephro- or neurotoxicity,clinically proven meaningful CNS penetration
